Species: Rattus norvegicus
Test: DrugMatrix - Regimen: Daily Repeat
Assay type: toxicity, organism-based, Sprague-Dawley
Set-up: regimen Daily Repeat, gender Male, age 6-8 weeks
Details: in vivo, po, route oral GAVAGE, vehicle .5 % CMC; for URIC ACID / ALANINE AMINOTRANSFERASE / ALBUMIN / ALKALINE PHOSPHATASE / ASPARTATE AMINOTRANSFERASE / BLOOD UREA NITROGEN / CARBON DIOXIDE / CHLORIDE / CHOLESTEROL / CREATINE PHOSPHOKINASE / CREATININE / GLUCOSE / LACTATE DEHYDROGENASE / LIPASE / PHOSPHORUS / POTASSIUM / SODIUM / TOTAL BILIRUBIN / TOTAL PROTEIN: tissue Plasma; for ABSOLUTE BASOPHIL / ABSOLUTE EOSINOPHIL / ABSOLUTE LYMPHOCYTE / ABSOLUTE MONOCYTE / ABSOLUTE SEGMENTED NEUTROPHIL / BASOPHIL / EOSINOPHIL / ERYTHROCYTE COUNT / HEMATOCRIT / HEMOGLOBIN / LEUKOCYTE COUNT / LYMPHOCYTE / MEAN CORPUSCULAR HEMOGLOBIN / MEAN CORPUSCULAR HEMOGLOBIN CONCENTRATION / MEAN CORPUSCULAR VOLUME / MONOCYTE / NEUTROPHIL / NUCLEATED RED BLOOD CELLS / PLATELET COUNT: tissue Blood
[1] = 250 mg/kg, 120 h, dose level High, time 5 day
[2] = […], 72 h, dose 0.25 mg/Kg, dose level Low, time 3 day
[3] = […], 120 h, dose 0.25 mg/Kg, dose level Low, time 5 day

Q: `C#C[C@]1(O)CC[C@H]2[C@@H]3CCc4cc(OC)ccc4[C@H]3CC[C@@]21C` [MESTRANOL] was tested. Which “URIC ACID” value (250 mg/kg, 72 h, dose level High, time 3 day) did it give?
A: 1.23 mg/dL

Q: What about the “ABSOLUTE BASOPHIL” value [1] of the same compound?
A: 0 CELLS/uL

Q: And the “ABSOLUTE EOSINOPHIL” value [1]?
A: 0 CELLS/uL

Q: And the “ABSOLUTE LYMPHOCYTE” value [1]?
A: 11929 CELLS/uL

Q: And the “ABSOLUTE MONOCYTE” value [1]?
A: 0 CELLS/uL

Q: And the “ABSOLUTE SEGMENTED NEUTROPHIL” value [1]?
A: 1137.67 CELLS/uL

Q: What about the BASOPHIL [1] of the same compound?
A: 0%

Q: What about the EOSINOPHIL [1] of the same compound?
A: 0%

Q: What about the “ERYTHROCYTE COUNT” value [1] of the same compound?
A: 6.07 x10E6/uL

Q: What about the HEMATOCRIT [1] of the same compound?
A: 37.27%

Q: And the HEMOGLOBIN [1]?
A: 14.37 G/DL

Q: What about the “LEUKOCYTE COUNT” value [1] of the same compound?
A: 13.07 x10E3/uL

Q: What about the LYMPHOCYTE [1] of the same compound?
A: 91.33%

Q: What about the “MEAN CORPUSCULAR HEMOGLOBIN” value [1] of the same compound?
A: 23.67 pg

Q: And the “MEAN CORPUSCULAR HEMOGLOBIN CONCENTRATION” value [1]?
A: 38.53 G/DL

Q: And the “MEAN CORPUSCULAR VOLUME” value [1]?
A: 61.37 fL

Q: And the MONOCYTE [1]?
A: 0%

Q: What about the NEUTROPHIL [1] of the same compound?
A: 8.67%

Q: What about the “NUCLEATED RED BLOOD CELLS” value [1] of the same compound?
A: 0 /100WBC

Q: And the “PLATELET COUNT” value [1]?
A: 1600 x10E3/uL

Q: And the “ALANINE AMINOTRANSFERASE” value [1]?
A: 72.67 u/L

Q: And the ALBUMIN [1]?
A: 4.13 G/DL

Q: And the “ALKALINE PHOSPHATASE” value [1]?
A: 667.33 u/L

Q: What about the “ASPARTATE AMINOTRANSFERASE” value [1] of the same compound?
A: 77.67 u/L

Q: What about the “BLOOD UREA NITROGEN” value [1] of the same compound?
A: 14.67 mg/dL

Q: What about the “CARBON DIOXIDE” value [1] of the same compound?
A: 23.67 mmol/L

Q: What about the CHLORIDE [1] of the same compound?
A: 102 MEQ/L

Q: What about the CHOLESTEROL [1] of the same compound?
A: 4.67 mg/dL

Q: What about the “CREATINE PHOSPHOKINASE” value [1] of the same compound?
A: 223.67 u/L

Q: And the CREATININE [1]?
A: 0.14 mg/dL

Q: What about the GLUCOSE [1] of the same compound?
A: 117 mg/dL

Q: And the “LACTATE DEHYDROGENASE” value [1]?
A: 394.67 u/L

Q: And the LIPASE [1]?
A: 7.33 u/L

Q: What about the PHOSPHORUS [1] of the same compound?
A: 10.63 mg/dL

Q: What about the POTASSIUM [1] of the same compound?
A: 6.65 MEQ/L

Q: What about the SODIUM [1] of the same compound?
A: 145.1 MEQ/L

Q: And the “TOTAL BILIRUBIN” value [1]?
A: 0.13 mg/dL

Q: What about the “URIC ACID” value [1] of the same compound?
A: 1.63 mg/dL

Q: And the “ABSOLUTE BASOPHIL” value [2]?
A: 0 CELLS/uL

Q: And the “ABSOLUTE EOSINOPHIL” value [2]?
A: 68.33 CELLS/uL

Q: What about the “ABSOLUTE LYMPHOCYTE” value [2] of the same compound?
A: 15182.67 CELLS/uL

Q: What about the “ABSOLUTE MONOCYTE” value [2] of the same compound?
A: 0 CELLS/uL

Q: What about the “ABSOLUTE SEGMENTED NEUTROPHIL” value [2] of the same compound?
A: 1349 CELLS/uL

Q: What about the BASOPHIL [2] of the same compound?
A: 0%

Q: And the EOSINOPHIL [2]?
A: 0.33%

Q: What about the “ERYTHROCYTE COUNT” value [2] of the same compound?
A: 5.73 x10E6/uL

Q: And the HEMATOCRIT [2]?
A: 36.73%

Q: And the HEMOGLOBIN [2]?
A: 14.03 G/DL

Q: What about the “LEUKOCYTE COUNT” value [2] of the same compound?
A: 16.6 x10E3/uL

Q: What about the LYMPHOCYTE [2] of the same compound?
A: 91.67%

Q: And the “MEAN CORPUSCULAR HEMOGLOBIN” value [2]?
A: 24.5 pg

Q: And the “MEAN CORPUSCULAR HEMOGLOBIN CONCENTRATION” value [2]?
A: 38.17 G/DL

Q: What about the “MEAN CORPUSCULAR VOLUME” value [2] of the same compound?
A: 64.17 fL

Q: What about the MONOCYTE [2] of the same compound?
A: 0%

Q: What about the NEUTROPHIL [2] of the same compound?
A: 8%

Q: What about the “NUCLEATED RED BLOOD CELLS” value [2] of the same compound?
A: 0 /100WBC

Q: What about the “PLATELET COUNT” value [2] of the same compound?
A: 1226 x10E3/uL

Q: And the “ALANINE AMINOTRANSFERASE” value [2]?
A: 51.33 u/L

Q: And the ALBUMIN [2]?
A: 4.37 G/DL

Q: What about the “ALKALINE PHOSPHATASE” value [2] of the same compound?
A: 522.67 u/L

Q: And the “ASPARTATE AMINOTRANSFERASE” value [2]?
A: 83.67 u/L

Q: What about the “BLOOD UREA NITROGEN” value [2] of the same compound?
A: 12.67 mg/dL

Q: And the “CARBON DIOXIDE” value [2]?
A: 28 mmol/L

Q: What about the CHLORIDE [2] of the same compound?
A: 101.67 MEQ/L

Q: And the CHOLESTEROL [2]?
A: 36 mg/dL

Q: And the “CREATINE PHOSPHOKINASE” value [2]?
A: 348.33 u/L

Q: What about the CREATININE [2] of the same compound?
A: 0.27 mg/dL

Q: And the GLUCOSE [2]?
A: 135.67 mg/dL

Q: And the “LACTATE DEHYDROGENASE” value [2]?
A: 453.33 u/L

Q: What about the LIPASE [2] of the same compound?
A: 7.67 u/L

Q: What about the PHOSPHORUS [2] of the same compound?
A: 11.2 mg/dL

Q: And the POTASSIUM [2]?
A: 6.61 MEQ/L

Q: What about the SODIUM [2] of the same compound?
A: 145.07 MEQ/L

Q: What about the “TOTAL BILIRUBIN” value [2] of the same compound?
A: 0.23 mg/dL

Q: And the “TOTAL PROTEIN” value [2]?
A: 6.23 G/DL

Q: And the “URIC ACID” value [2]?
A: 1.33 mg/dL

Q: What about the “ABSOLUTE BASOPHIL” value [3] of the same compound?
A: 0 CELLS/uL

Q: And the “ABSOLUTE EOSINOPHIL” value [3]?
A: 139.33 CELLS/uL

Q: What about the “ABSOLUTE LYMPHOCYTE” value [3] of the same compound?
A: 14510.33 CELLS/uL

Q: What about the “ABSOLUTE MONOCYTE” value [3] of the same compound?
A: 98 CELLS/uL

Q: And the “ABSOLUTE SEGMENTED NEUTROPHIL” value [3]?
A: 652.33 CELLS/uL

Q: What about the BASOPHIL [3] of the same compound?
A: 0%

Q: And the EOSINOPHIL [3]?
A: 1%

Q: And the “ERYTHROCYTE COUNT” value [3]?
A: 5.62 x10E6/uL

Q: And the HEMATOCRIT [3]?
A: 35.57%

Q: What about the HEMOGLOBIN [3] of the same compound?
A: 14.03 G/DL

Q: And the “LEUKOCYTE COUNT” value [3]?
A: 15.4 x10E3/uL

Q: What about the LYMPHOCYTE [3] of the same compound?
A: 94.33%

Q: And the “MEAN CORPUSCULAR HEMOGLOBIN” value [3]?
A: 25.13 pg

Q: What about the “MEAN CORPUSCULAR HEMOGLOBIN CONCENTRATION” value [3] of the same compound?
A: 39.5 G/DL

Q: What about the “MEAN CORPUSCULAR VOLUME” value [3] of the same compound?
A: 63.6 fL

Q: What about the MONOCYTE [3] of the same compound?
A: 0.67%

Q: And the NEUTROPHIL [3]?
A: 4%

Q: And the “NUCLEATED RED BLOOD CELLS” value [3]?
A: 0 /100WBC

Q: What about the “PLATELET COUNT” value [3] of the same compound?
A: 1110.33 x10E3/uL

Q: What about the “ALANINE AMINOTRANSFERASE” value [3] of the same compound?
A: 49.33 u/L

Q: What about the ALBUMIN [3] of the same compound?
A: 3.97 G/DL

Q: And the “ALKALINE PHOSPHATASE” value [3]?
A: 553.33 u/L

Q: And the “ASPARTATE AMINOTRANSFERASE” value [3]?
A: 70.67 u/L

Q: What about the “BLOOD UREA NITROGEN” value [3] of the same compound?
A: 19.33 mg/dL

Q: What about the “CARBON DIOXIDE” value [3] of the same compound?
A: 26.67 mmol/L

Q: And the CHLORIDE [3]?
A: 102.67 MEQ/L

Q: And the CHOLESTEROL [3]?
A: 31.33 mg/dL

Q: And the “CREATINE PHOSPHOKINASE” value [3]?
A: 297.67 u/L

Q: And the CREATININE [3]?
A: 0.26 mg/dL

Q: What about the GLUCOSE [3] of the same compound?
A: 141.33 mg/dL

Q: What about the “LACTATE DEHYDROGENASE” value [3] of the same compound?
A: 123.67 u/L

Q: And the LIPASE [3]?
A: 7.33 u/L

Q: And the PHOSPHORUS [3]?
A: 11.23 mg/dL

Q: And the POTASSIUM [3]?
A: 6.54 MEQ/L

Q: What about the SODIUM [3] of the same compound?
A: 144.33 MEQ/L

Q: What about the “TOTAL BILIRUBIN” value [3] of the same compound?
A: 0.27 mg/dL

Q: What about the “TOTAL PROTEIN” value [3] of the same compound?
A: 6 G/DL

Q: And the “URIC ACID” value [3]?
A: 1.13 mg/dL
